Measurements from PubChem BioAssay AID330 (DTP/NCI, 2004).
Where “and” joins values, the source holds several entries; their conditions need not be identical. Identical values can stand only once. Inconclusive results and toxic doses are left out.

Test system: P388 leukemia ip, CD2F1 mice, survival T/C
Experiment: NCI In Vivo Anticancer Drug Screen. Data for tumor model P388 Leukemia (intraperitoneal) in CD2F1 (CDF1) mice
Details: endpoint: median survival time, higher = longer survival
How it was run: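 Mice carrying the transplanted tumor received test compound or vehicle. Survival was recorded in each group, and the value is the treated-group measurement divided by that of the vehicle-treated control group.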

[1] = dose: 60.0 mg/kg/injection, schedule: Q01DX005 (ip), vehicle: Klucel (hydroxypropylcellulose) (HPC)
[2] = dose: 120.0 mg/kg/injection, schedule: Q01DX005 (ip), vehicle: Klucel (hydroxypropylcellulose) (HPC)
[3] = dose: 50.0 mg/kg/injection, schedule: Q01DX005 (ip), vehicle: saline with Tween-80
[4] = dose: 100.0 mg/kg/injection, schedule: Q01DX005 (ip), vehicle: saline with Tween-80
[5] = dose: 200.0 mg/kg/injection, schedule: Q01DX005 (ip), vehicle: saline with Tween-80
[6] = dose: 50.0 mg/kg/injection, schedule: Q01DX005 (ip), vehicle: Klucel (hydroxypropylcellulose) (HPC)
[7] = dose: 100.0 mg/kg/injection, schedule: Q01DX005 (ip), vehicle: Klucel (hydroxypropylcellulose) (HPC)
[8] = dose: 200.0 mg/kg/injection, schedule: Q01DX005 (ip), vehicle: Klucel (hydroxypropylcellulose) (HPC)
[9] = dose: 100.0 mg/kg/injection, schedule: Q04DX003 (ip), vehicle: saline
[10] = dose: 200.0 mg/kg/injection, schedule: Q04DX003 (ip), vehicle: saline
[11] = dose: 400.0 mg/kg/injection, schedule: Q04DX003 (ip), vehicle: saline
[12] = dose: 12.5 mg/kg/injection, schedule: Q01DX005 (ip), vehicle: Klucel (hydroxypropylcellulose) (HPC)
[13] = dose: 25.0 mg/kg/injection, schedule: Q01DX005 (ip), vehicle: Klucel (hydroxypropylcellulose) (HPC)
[14] = dose: 50.0 mg/kg/injection, schedule: Q01DX009 (ip), vehicle: Klucel (hydroxypropylcellulose) (HPC)
[15] = dose: 100.0 mg/kg/injection, schedule: Q01DX009 (ip), vehicle: Klucel (hydroxypropylcellulose) (HPC)
[16] = dose: 200.0 mg/kg/injection, schedule: Q01DX009 (ip), vehicle: Klucel (hydroxypropylcellulose) (HPC)
[17] = dose: 50.0 mg/kg/injection, schedule: Q01DX009 (ip), vehicle: saline with Tween-80
[18] = dose: 100.0 mg/kg/injection, schedule: Q01DX009 (ip), vehicle: saline with Tween-80
[19] = dose: 240.0 mg/kg/injection, schedule: Q01DX005 (ip), vehicle: Klucel (hydroxypropylcellulose) (HPC)
[20] = dose: 50.0 mg/kg/injection, schedule: Q01DX009 (ip), vehicle: saline
[21] = dose: 100.0 mg/kg/injection, schedule: Q01DX009 (ip), vehicle: saline
[22] = dose: 200.0 mg/kg/injection, schedule: Q01DX009 (ip), vehicle: saline

SMILES: CC(=O)NS(=O)(=O)c1ccc(N=NC2C(=O)N(C(=O)c3cccnc3)N=C2C)cc1 (stereo unspecified)
- T/C (dose: 100.0 mg/kg/injection, schedule: Q04DX003 (ip), vehicle: saline with Tween-80): 101 % of control
- T/C (dose: 200.0 mg/kg/injection, schedule: Q04DX003 (ip), vehicle: saline with Tween-80): 104 % of control
- T/C (dose: 400.0 mg/kg/injection, schedule: Q04DX003 (ip), vehicle: saline with Tween-80): 109 % of control

SMILES: Cc1cccn2cc(CC(=O)O)nc12
- T/C (dose: 100.0 mg/kg/injection, schedule: Q01DX001 (ip), vehicle: saline): 105 % of control
- T/C (dose: 200.0 mg/kg/injection, schedule: Q01DX001 (ip), vehicle: saline): 104 % of control
- T/C (dose: 400.0 mg/kg/injection, schedule: Q01DX001 (ip), vehicle: saline): 109 % of control

SMILES: CNC(=O)SC1=NS(=O)(=O)c2ccc(Cl)cc2N1
- T/C [1]: 110 % of control
- T/C [2]: 107 % of control

SMILES: CCOC(=O)N1CCC(n2nncc2OCC)CC1
- T/C (dose: 100.0 mg/kg/injection, schedule: Q04DX002 (ip), vehicle: Klucel (hydroxypropylcellulose) (HPC)): 102 % of control
- T/C (dose: 200.0 mg/kg/injection, schedule: Q04DX002 (ip), vehicle: Klucel (hydroxypropylcellulose) (HPC)): 102 % of control
- T/C (dose: 400.0 mg/kg/injection, schedule: Q04DX002 (ip), vehicle: Klucel (hydroxypropylcellulose) (HPC)): 105 % of control

SMILES: CC(C)=C[C@@H]1c2c(c3ccccc3n(C)c2=O)O[C@H]2c3c(c4ccccc4n(C)c3=O)OC(C)(C)[C@@H]12
- T/C [3]: 99 % of control
- T/C [4]: 100 % of control
- T/C [5]: 100 % of control

SMILES: NOCc1cccc(C(F)(F)F)c1
- T/C (dose: 75.0 mg/kg/injection, schedule: Q01DX009 (ip), vehicle: saline with Tween-80): 87 % of control
- T/C (dose: 150.0 mg/kg/injection, schedule: Q01DX009 (ip), vehicle: saline with Tween-80): 91 % of control
- T/C (dose: 300.0 mg/kg/injection, schedule: Q01DX009 (ip), vehicle: saline with Tween-80): 91 % of control

SMILES: O=c1c2sc3ccccc3c2ncn1C1CCCCC1
- T/C [6]: 98 % of control
- T/C [7]: 100 % of control
- T/C [8]: 93 % of control

SMILES: Cc1nn(C(=O)c2ccncc2)c(C)c1N=Nc1ccc(S(=O)(=O)Nc2nccs2)cc1
- T/C [9]: 96 % of control
- T/C [10]: 97 % of control
- T/C [11]: 110 % of control

SMILES: CCN=C(NCC)c1ccc(NC(=O)Nc2ccc(NC(=O)Nc3ccc(C(=NCC)NCC)cc3)cc2)cc1
- T/C (dose: 3.12 mg/kg/injection, schedule: Q01DX005 (ip), vehicle: Klucel (hydroxypropylcellulose) (HPC)): 107 % of control
- T/C (dose: 6.25 mg/kg/injection, schedule: Q01DX005 (ip), vehicle: Klucel (hydroxypropylcellulose) (HPC)): 111 % of control
- T/C [12]: 116 % of control
- T/C [13]: 156 % of control
- T/C [6]: 122 % of control

SMILES: C=CCNC(=S)/N=C1\N=S(C)(=O)c2ccccc21 (stereo unspecified)
- T/C [14]: 96 % of control
- T/C [15]: 94 % of control
- T/C [16]: 102 % of control

SMILES: COc1ccc(C2c3cc(OC(C)=O)c(OC)cc3Oc3cc(OC)c(OC(C)=O)cc32)cc1
- T/C [6]: 96 % of control
- T/C [7]: 93 % of control
- T/C [8]: 87 % of control

SMILES: O=C1c2ccccc2C(O)(C#Cc2ccccc2)c2cc(Cl)ccc21 (stereo unspecified)
- T/C [17]: 106 % of control
- T/C [18]: 102 % of control
- T/C (dose: 200.0 mg/kg/injection, schedule: Q01DX009 (ip), vehicle: saline with Tween-80): 90 % of control

SMILES: COc1cc2c(c(OC)c1OC)-c1ccc(SC)c(=O)cc1C(NC(=S)NC1OCC(OC(C)=O)C(OC(C)=O)C1OC(C)=O)CC2 (stereo unspecified)
- T/C (dose: 25.0 mg/kg/injection, schedule: Q01DX009 (ip), vehicle: saline with Tween-80): 178 % of control and 184 % of control
- T/C [17]: 200 % of control and 191 % of control
- T/C [18]: 93 % of control and 101 % of control

SMILES: Cc1nn(C(N)=S)c(C)c1N=Nc1ccc(Cl)cc1Cl
- T/C (dose: 50.0 mg/kg/injection, schedule: Q04DX002 (ip), vehicle: saline with Tween-80): 101 % of control and 105 % of control
- T/C (dose: 600.0 mg/kg/injection, schedule: Q04DX002 (ip), vehicle: saline with Tween-80): 90 % of control

SMILES: CCn1c(-c2c(Cl)cc(O)cc2Cl)cc2c(Cl)cc(O)cc21
- T/C [1]: 87 % of control
- T/C [2]: 92 % of control

SMILES: O=[N+]([O-])c1ccc2c(c1)Oc1cccnc1[Se]2
- T/C [1]: 105 % of control
- T/C [2]: 95 % of control
- T/C [19]: 90 % of control

SMILES: CC(C)(C)N(O)N=O.CC(C)(C)N(O)N=O.[Cu]
- T/C (dose: 6.25 mg/kg/injection, schedule: Q01DX001 (ip), vehicle: saline with Tween-80): 103 % of control

SMILES: Cc1c([O-])[n+](Cc2ccccc2)nn1C
- T/C (dose: 25.0 mg/kg/injection, schedule: Q01DX009 (ip), vehicle: water): 89 % of control

SMILES: Cc1cc(NC(=S)SCc2ccc(Cl)cc2)c([N+](=O)[O-])cc1C
- T/C [20]: 92 % of control
- T/C (dose: 50.0 mg/kg/injection, schedule: Q01DX009 (ip), vehicle: suspension in saline): 108 % of control
- T/C [21]: 97 % of control
- T/C [22]: 92 % of control
- T/C (dose: 200.0 mg/kg/injection, schedule: Q01DX009 (ip), vehicle: suspension in saline): 98 % of control

SMILES: O=C1CCC2(CC1C1C=CCC1)OCCO2 (stereo unspecified)
- T/C (dose: 100.0 mg/kg/injection, schedule: Q01DX009 (ip), vehicle: saline sonified): 100 % of control
- T/C (dose: 200.0 mg/kg/injection, schedule: Q01DX009 (ip), vehicle: saline sonified): 116 % of control
- T/C (dose: 400.0 mg/kg/injection, schedule: Q01DX009 (ip), vehicle: saline sonified): 100 % of control

SMILES: CNC(=O)Oc1ccccc1OC(C)C
- T/C (dose: 7.5 mg/kg/injection, schedule: Q01DX005 (ip), vehicle: Klucel (hydroxypropylcellulose) (HPC)): 97 % of control
- T/C (dose: 15.0 mg/kg/injection, schedule: Q01DX005 (ip), vehicle: Klucel (hydroxypropylcellulose) (HPC)): 96 % of control

SMILES: CNC(=O)Oc1cccc2c1C(=O)OC2=O
- T/C (dose: 100.0 mg/kg/injection, schedule: Q01DX001 (ip), vehicle: saline with Tween-80): 100 % of control
- T/C (dose: 200.0 mg/kg/injection, schedule: Q01DX001 (ip), vehicle: saline with Tween-80): 92 % of control
- T/C (dose: 400.0 mg/kg/injection, schedule: Q01DX001 (ip), vehicle: saline with Tween-80): 102 % of control

SMILES: CSCC(=O)O
- T/C [20]: 106 % of control
- T/C [21]: 106 % of control
- T/C [22]: 97 % of control

SMILES: COc1ccc2c3c([nH]c2c1[N+](=O)[O-])C(C)NCC3 (stereo unspecified)
- T/C [12]: 101 % of control
- T/C [13]: 92 % of control
- T/C [6]: 92 % of control

SMILES: C=CCSc1nc2ccc(N3C(=O)CCC3=O)cc2s1
- T/C (dose: 12.5 mg/kg/injection, schedule: Q01DX009 (ip), vehicle: Klucel (hydroxypropylcellulose) (HPC)): 105 % of control
- T/C (dose: 25.0 mg/kg/injection, schedule: Q01DX009 (ip), vehicle: Klucel (hydroxypropylcellulose) (HPC)): 103 % of control
- T/C [14]: 101 % of control and 102 % of control
- T/C [15]: 92 % of control
- T/C [16]: 89 % of control

SMILES: CCC[N+]12CC=C3COC(=O)C(C)(O)C(C)(O)C(C)C(=O)OC(CC1)C32 (stereo unspecified)
- T/C (dose: 60.0 mg/kg/injection, schedule: Q01DX005 (ip), vehicle: saline): 100 % of control
- T/C (dose: 120.0 mg/kg/injection, schedule: Q01DX005 (ip), vehicle: saline): 105 % of control
- T/C (dose: 240.0 mg/kg/injection, schedule: Q01DX005 (ip), vehicle: saline): 98 % of control

SMILES: COc1cc(O)c(C(C)c2ccccc2)cc1N=O (stereo unspecified)
- T/C [3]: 92 % of control
- T/C [4]: 87 % of control
- T/C [5]: 92 % of control

SMILES: CN(C)CCCN1c2ccccc2Sc2ccc(C(F)(F)F)cc21
- T/C (dose: 12.5 mg/kg/injection, schedule: Q01DX009 (ip), vehicle: saline with Tween-80): 123 % of control

SMILES: CC(C)(O)Cn1ccccc1=O
- T/C [9]: 98 % of control
- T/C [10]: 97 % of control
- T/C [11]: 104 % of control

SMILES: CC(O)CNC(=O)Nc1ccccc1 (stereo unspecified)
- T/C [1]: 97 % of control
- T/C [2]: 95 % of control
- T/C [19]: 88 % of control
